For assay [1], the system named is HeLa. Description: Antitumor activity against human HeLa cells after 3 days by SRB assay. Format: functional, cell-based. As to conditions: 72 h.
Assay [2] concerns A549. The assay is described as follows: Antitumor activity against human A549 cells after 3 days by SRB assay. Format: functional, cell-based. The conditions noted are these: A549, 72 h.
Assay [3] has as its system A549. The assay is described as follows: Potency index, ratio of IC50 for rhein to IC50 for test compound against human A549 cells after 3 days by SRB assay. The assay is classed as functional.
For assay [4], the system named is HeLa. The assay is described as follows: Potency index, ratio of IC50 for rhein to IC50 for test compound against human HeLa cells after 3 days by SRB assay. The assay is classed as functional.

Consider 31 molecules from ChEMBL document CHEMBL3352091, “Natural product-based design, synthesis and biological evaluation of anthra[2,1-d]thiazole-6,11-dione derivatives from rhein as novel antitumour agents” (Eur J Med Chem, 2014).

Molecules are shown by their SMILES. Some results are limits rather than exact numbers.

In the case of `O=C1c2c(O)cccc2C(=O)c2c1c(O)cc1nc(N3CCN(CCO)CC3)sc21`, the IC50 in assay [1] came to 4.5 µM; in assay [2], 6.5 µM.
In the case of `CN1CCN(CCN2CCN(c3nc4cc(O)c5c(c4s3)C(=O)c3cccc(O)c3C5=O)CC2)CC1`, the IC50 worked out at 80.1 µM in assay [1] and 24.2 µM in assay [2].
In the same order, the values of `O=C1c2c(O)cccc2C(=O)c2c1c(O)cc1nc(N3CCCCC3CCO)sc21` (centres undefined) are 16.7 µM and 19.6 µM.
In the same order, the values of `CC(C)N1CCN(CCN2CCN(c3nc4cc(O)c5c(c4s3)C(=O)c3cccc(O)c3C5=O)CC2)CC1` are > 100 µM and 54 µM.
As for `O=C1c2c(O)cccc2C(=O)c2c1c(O)cc1nc(N3CCCC3)sc21`, the IC50 in assay [1] amounted to 44.8 µM; in assay [2] it was 148 µM.
For `CCOC(=O)N1CCN(c2nc3cc(O)c4c(c3s2)C(=O)c2cccc(O)c2C4=O)CC1`, the IC50 in assay [1] stood at 68.4 µM; in assay [2] it was 54.8 µM.
Regarding `O=C1c2c(O)cccc2C(=O)c2c1c(O)cc1nc(N3CCCCCC3)sc21`, the half-maximal inhibitory concentration (IC50) in assay [1] came to 41 µM; in assay [2], 39.4 µM.
`O=C1c2c(O)cccc2C(=O)c2c1c(O)cc1nc(N3CCCCC3)sc21`: the IC50 in assay [1] is 55.8 µM; in assay [2], > 100 µM.
In the same order, the values of `O=C1c2c(O)cccc2C(=O)c2c1c(O)cc1nc(N3CCOCC3)sc21` are 30.3 µM and 33.4 µM.
In the same order, the values of `O=C(O)c1cc(O)c2c(c1)C(=O)c1cccc(O)c1C2=O` [RHEIN] are 92.2 µM and 95.8 µM.
In the same order, the values of `O=C1c2c(O)cccc2C(=O)c2c1c(O)cc1nc(N3CCN(CCN4CCOCC4)CC3)sc21` are > 100 µM and > 100 µM.
For the molecule `CN(C)C1CCN(c2nc3cc(O)c4c(c3s2)C(=O)c2cccc(O)c2C4=O)CC1`, the half-maximal inhibitory concentration (IC50) is 11.8 µM in assay [1] and 6.3 µM in assay [2].
In the same order, the values of `CC1CCN(c2nc3cc(O)c4c(c3s2)C(=O)c2cccc(O)c2C4=O)CC1` are 60.4 µM and 66 µM.
`O=C1c2c(O)cccc2C(=O)c2c1c(O)cc1nc(N3CCCC(O)C3)sc21` (centres undefined): the figures for the IC50 in assay [1] and in assay [2] were 26.9 µM and 21.1 µM, respectively.
Take `O=C1c2c(O)cccc2C(=O)c2c1c(O)cc1nc(N3CCN(CCN4CCCCC4)CC3)sc21`: the IC50 in assay [1] was 86.9 µM; in assay [2], 46.4 µM.
Take `CC(C)N(c1nc2cc(O)c3c(c2s1)C(=O)c1cccc(O)c1C3=O)C(C)C`: the IC50 in assay [1] is 118 µM; in assay [2], > 100 µM.
As for `CCCCN(CCCC)CCN1CCN(c2nc3cc(O)c4c(c3s2)C(=O)c2cccc(O)c2C4=O)CC1`, the IC50 was > 100 µM in assay [1] and 57.1 µM in assay [2].
Consider `O=C1c2c(O)cccc2C(=O)c2c1c(O)cc1nc(N3CCN(CCN4CCCC4)CC3)sc21`, for which the results for the IC50 in assay [1] and in assay [2] were 81.1 µM and 70.3 µM, respectively.
Take `CN(C)CCN1CCN(c2nc3cc(O)c4c(c3s2)C(=O)c2cccc(O)c2C4=O)CC1`: the half-maximal inhibitory concentration (IC50) was > 100 µM in assay [1] and 32.8 µM in assay [2].
With `CC(C)N1CCN(c2nc3cc(O)c4c(c3s2)C(=O)c2cccc(O)c2C4=O)CC1`, the IC50 in assay [1] is 14.8 µM; in assay [2], 15 µM.
In the same order, the values of `CCN1CCN(CCN2CCN(c3nc4cc(O)c5c(c4s3)C(=O)c3cccc(O)c3C5=O)CC2)CC1` are 71.3 µM and 23.4 µM.
On to `CCN(CC)c1nc2cc(O)c3c(c2s1)C(=O)c1cccc(O)c1C3=O`, for which the IC50 worked out at 86.7 µM in assay [1] and 108 µM in assay [2].
As to `CCN(CC)CCN1CCN(c2nc3cc(O)c4c(c3s2)C(=O)c2cccc(O)c2C4=O)CC1`, the IC50 in assay [1] and in assay [2] was > 100 µM throughout.
For `CCN1CCN(c2nc3cc(O)c4c(c3s2)C(=O)c2cccc(O)c2C4=O)CC1`, the IC50 is 4.3 µM in assay [1] and 5.4 µM in assay [2]. The “Ratio IC50” value in assay [3] and in assay [4] was 30 each time.
Turning to `O=CN1CCCN(c2nc3cc(O)c4c(c3s2)C(=O)c2cccc(O)c2C4=O)CC1`, the half-maximal inhibitory concentration (IC50) in assay [1] is 19.7 µM; in assay [2], 15.2 µM.
In the same order, the values of `CN1CCN(c2nc3cc(O)c4c(c3s2)C(=O)c2cccc(O)c2C4=O)CC1` are 27.4 µM and 20.2 µM.
`CC1CCN(CCN2CCN(c3nc4cc(O)c5c(c4s3)C(=O)c3cccc(O)c3C5=O)CC2)CC1`: the half-inhibitory concentration (IC50) amounted to 82.1 µM in assay [1] and 38.2 µM in assay [2].
As to `CC(C)N(CCN1CCN(c2nc3cc(O)c4c(c3s2)C(=O)c2cccc(O)c2C4=O)CC1)C(C)C`, the IC50 in assay [1] and in assay [2] was > 100 µM each time.
Consider `CN(CCO)c1nc2cc(O)c3c(c2s1)C(=O)c1cccc(O)c1C3=O`, for which the IC50 in assay [1] is 30.6 µM; in assay [2], 45.9 µM.
In the same order, the values of `O=C1c2c(O)cccc2C(=O)c2c1c(O)cc1nc(N3CCN(C4CC4)CC3)sc21` are 58.1 µM and 65.7 µM.
In the same order, the values of `CN(CC(O)CO)c1nc2cc(O)c3c(c2s1)C(=O)c1cccc(O)c1C3=O` (centres undefined) are 23.2 µM and 30.4 µM.
